# According to patent publication US20260325465A1, “SHP-1 INHIBITORS FOR TREATING CANCER” (MDX MANAGEMENT LLC, priority 2022, published 2026):
# Entries after “also recorded” stand apart in the source; their conditions may differ.
# B1: IFNγ: type II interferon (protein, UniProt P01579 24-161, looked up)
# Interferon gamma: QDPYVKEAENLKKYFNAGHSDVADNGTLFLGILKNWKEESDRKIMQSQIVSFYFKLFKNFKDDQSIQKSVETIKEDMNVKFFNSNKKKRDDFEKLTNYSVTDLNVQRKAIHELIQVMAELSPAAKTGKRKRSQMLFRG
# What was measured:
# [1] = tested on: PTP/SHP-1 activity in KPC tumor; assay: PTP/SHP-1 activity in KPC tumor in vivo; design: species or system murine; details: therapeutic treatment of KPC tumor
# [2] = tested on: Human monocyte-derived macrophages; assay: Human monocyte-derived macrophage response in tumor milieu configurations; assay type: cell-based; details: co-cultured with cancer cells (configuration 3)
# Experimental: Mechanism by which tumor cells inhibit macrophage proinflammatory response in TME was studied. As shown in panel A of FIG. 19, macrophage responses were assayed in a tumor milieu: Human monocyte-derived macrophages (MØ) were cultured alone (configuration 1), cultured in the presence of cancer cells-conditioned medium (50%) that contained cancer cell secreted factors (secretome; configuration 2), or co-cultured with cancer cells (cell “touch” model; configuration 3), or co-cultured with cancer cells that were placed in a transwell (0.4 μm) without “touching” MØ(configuration 4). Macrophages in these settings were treated with proinflammatory stimuli TLR agonist R848 (l g/ml), R848 plus IFNγ (40 ng/ml), or the sting activator MSA-2 (10 μg/ml).
# [3] = tested on: PTP activity in macrophages; assay: PTP activity in macrophages co-cultured with cancer cells and stimulated with IFNγ/LPS or TLR agonists; assay type: cell-based; design: concentration or dose not given beside the values; details: induced by IFNγ/LPS or TLR agonists, with cancer cell ligation, 30 min, 37 °C
# Experimental: (§1) FIGS. 3A-3E depict modulation of SHP-1 activity in proinflammatory macrophages in cancer. Macrophages co-cultured with cancer cells were stimulated with IFNγ/LPS or TLR agonists (αTLR) comprising CpG, polycytidylic acid (i.e., PolyI:C) and R848 (each 0.4 μg/ml) for 30 min (37 °C) in the presence or the absence of different SHP-1 or SHP-2 inhibitor or activator, followed by cell lysis and assays of PTP activity. FIG. 3A depicts SHP-1 activity regulation mechanisms. […] FIG. 3E depicts that PKCθ negatively regulates SHP-1 activity at a moderate level.
# SHP-1 [4] = assay: SHP-1 activity in macrophages under proinflammatory stimulation and cancer cell ligation; assay type: cell-based; details: IFNγ/LPS stimulation, cancer cell ligation
# Experimental: FIGS. 2A-2G depict that the inhibition of SHP-1 enhances macrophage proinflammatory response, antigen presentation and phagocytosis in a tumor milieu. FIG. 2A and FIG. 2B depict that SHP-1 activity in macrophages is triggered by proinflammatory stimulation and the extracellular cancer cell ligation (“touching”) of macrophages (green bar in FIG. 2A). […] The SHP-2 inhibitor SHP099 (1 μg/ml) was used in assays. FIG. 2C depicts the inhibition of SHP-1 by TPI-1 dose-dependently recovers IFNγ/LPS-induced activation of STAT1 (p-STAT1) and Erk1/2 (p-Erk1/2) de-activated by SHP-1 (red line). FIG. 2D and FIG. 2E depict that the inhibition of SHP-1 in macrophages by TPI-1 enhances production of proinflammatory cytokines (FIG. 2D) and expression of immunogenic antigen presentation machinery (FIG. 2E) by IFNγ/LPS in a tumor milieu. […] The SHP-1 and SHP-2 inhibitors TPI-1 and SHP099, respectively, was used at 1 μg/ml in assays.
# as §1
# In addition to TPI-1, several other SHP-1 inhibitors such as PTP inhibitor-I, PTP inhibitor-III, and recently reported vitamin E (9, 10) and phomoxanthone A and B (P×A and P×B) (11) were tested. Given that PKCθ modulates SHP-1 activity through phosphorylating Ser591 (12, 13), PKCθ inhibitor and activator were also tested in various assays.
# macrophages [5] = assay: Macrophage cytokine production under immunosuppressive or proinflammatory stimulation with cancer cell ligation; assay type: cell-based
# Text: FIGS. 6A-6D depict that the inhibition of SHP-1 promotes anti-tumor effects or pro-tumor effects under different circumstances. FIG. 6A depicts that intratumoral macrophages upregulate expression of iRs (Pir-B, Siglec E, F and G, and SIRPα) along with tumor progression to late-stage large sizes. KPC pancreatic tumors of small sizes (<150 mm^3) and those grown to larger sizes (>800 mm^3) were dissociated to single cells, followed by flow cytometry analyses for cell surface protein expression on macrophages (gated F4/80+). FIG. 6B depicts that the inhibition of SHP-1 alone promotes TME immunosuppression. Excised MC38 solid tumor cubes were treated with SHP-1 inhibitor TPI-1 (100 nM) or vehicle (DMSO) in a cell culture setting. After 24 h, tumor secreting cytokines into the culture medium were assayed by ELISA.
# The SHP-1 activity in non-therapeutic solid tumors is low (see FIGS. 7A-7D), and this low activity inhibits immunosuppressive receptor signaling. […] In parallel experiments, the same SHP-1 inhibitors augmented macrophage responses to the M1 stimuli IFNγ and LPS and enhanced proinflammatory cytokine production.
# [6] = tested on: TLR7/8 overexpressing pancreatic cancer cell line; details: stimulation of TLR7/8; cited from earlier work
# [7] = tested on: malignant melanoma and advanced malignancies; details: cited from earlier work
# macrophages [8] = assay: Macrophage antigen presentation and proinflammatory response in presence of tumor cells with or without iShp1; assay type: cell-based; details: for pro-inflammatory activation of macrophages: combined with iShp1 (TPI-1), tumor milieu
# Experimental: FIGS. 16A-16D depicts activation of macrophage proinflammatory response and antigen presentation in a tumor milieu by SHP-1 inhibition (iShp1) combination regimens. FIG. 16A depicts the testing system. FIG. 16B and FIG. 16C depict effects of interferons with or without TPI-1. FIG. 16D depicts effects of various agents including IL-1 family cytokines (IL-1, IL-18), TNFα and TLR ligands combined with TPI-1.
# In vitro macrophages were assayed in the presence of tumor cells that ligate macrophage iRs with or without inhibition of SHP-1 (iShp1) by TPI-1. See the testing system in FIG. 16A.
# SHP-1 [9] = assay: SHP-1 binding to macrophage iRs with phosphorylated ITIMs; assay type: cell-based; details: macrophages stimulated
# Text: Proinflammatory signal-induced Src family TK(s) mediate phosphorylation in the cytoplastic domain ITIMs that dock SHP-1 leading to SHP-1 activation.
# SHP-2 = SHP-2 binding to macrophage iRs with phosphorylated ITIMs; assay type: cell-based; details: macrophages stimulated
molecule,measurement,setting,value
Nc1nc2c(ncn2[C@@H]2O[C@@H]3COP(=O)(O)O[C@H]4[C@@H](O)[C@H](n5cnc6c(N)ncnc65)O[C@@H]4COP(=O)(O)O[C@@H]2[C@@H]3O)c(=O)[nH]1 [2′3′-cGAMP],PTP/SHP-1 activity induced in tumor,[1],induced spikes of PTP activities
"Nc1ncn([C@@H]2O[C@H](CO)[C@@H](O)[C@H]2O)c(=O)n1 [Azacitidine (AZA), Azacitidine]",PTP/SHP-1 activity induced in tumor,[1],spikes of SHP-1 activity are induced
COc1cc2cc(C(=O)CCC(=O)O)sc2cc1OC [MSA-2],macrophage proinflammatory response in co-culture with cancer cells,[2],abolishment of proinflammatory response and enhanced immunosuppression with high IL-10 and TGFβ production
O=C1C(=NNc2ccc(S(=O)(=O)O)cc2)C(c2ccc([N+](=O)[O-])cc2)=NN1c1ccccc1 [PHPS1],PTP activity diminished in macrophages,[3],< 10%
CCCCCCCCCCCCCC(=O)O[C@@H]1[C@@H](C)[C@@]2(O)[C@@H](C=C(CO)C[C@]3(O)C(=O)C(C)=C[C@@H]23)[C@@H]2C(C)(C)[C@]12OC(C)=O [PMA],SHP-1 activity in macrophages (effect in words),SHP-1 [4],moderately inhibited SHP-1; also recorded: reduced SHP-1 activity
O=C(CBr)c1ccc(O)cc1 [PTP-I],PTP activity diminished in macrophages,[3],> 70%
same,macrophage production of IL-12 and TNFα,macrophages [5]; IFNγ and LPS,dose-dependently augmented macrophage proinflammatory response with increased IL-12 and TNFα
same,macrophage production of IL-10 and TGFβ,macrophages [5]; IL-4/13 or IL-10 stimulation,dose-dependently augmented
CCOCc1nc2c(N)nc3ccccc3c2n1CC(C)(C)O [R848],macrophage proinflammatory response in co-culture with cancer cells,[2],abolishment of proinflammatory response and enhanced immunosuppression with high IL-10 and TGFβ production
same,cell proliferation and chemosensitivity,[6],increased cell proliferation and reduced chemosensitivity
CC1(N)CCN(c2cnc(-c3cccc(Cl)c3Cl)c(N)n2)CC1 [SHP099],PTP activity diminished in macrophages,[3],< 10%
"O.O.O.O.O.O.O.O.O.O=C([O-])[C@@H]1[O][Sb]2([O-])([O][Sb]34([OH])[O][C@H]([C@H](O)CO)[C@H]([O]3)[C@H](C(=O)[O-])[O]4)[O][C@H]([C@H](O)CO)[C@@H]1[O]2.[Na+].[Na+].[Na+] [SSG, sodium stibogluconate]",effect against tumor development,"[7]; combination with interferons, with or without chemotherapy",no effect was seen against tumor development
same,"most common toxic side-effects, share of patients","[7]; thrombocytopenia, elevated serum lipase, fatigue, fever, chills, anemia, hypokalemia, pancreatitis, skin rash",up to 68 % of patients
CC(C)[C@@](C)(O)[C@@H]1CN(c2nc(-c3[nH]nc4ncccc34)c(F)cc2Cl)CCN1 [VTX27],SHP-1 activity in macrophages (effect in words),SHP-1 [4],increased SHP-1 activity
IFNα,antigen presentation and proinflammatory response,"macrophages [8]; alone, without and with iShp1 (TPI-1)",did not induce antigen presentation or proinflammatory response
IL-1β: IL-1 family cytokine,pro-inflammatory activation of macrophages,macrophages [8],exhibited capacities of pro-inflammatory activation of macrophages
IL-4: immunosuppressive cytokine,binding of SHP-1 to iR ITIMs,SHP-1 [9],leads to binding of SHP-1
same,binding of SHP-2 to iR ITIMs,SHP-2,SHP-2 binding is dominated
IL-6: activating cytokine,binding of SHP-1 to iR ITIMs,SHP-1 [9],SHP-1 binding occurs exclusively under proinflammatory conditions
IL-10: immunosuppressive cytokine,binding of SHP-1 to iR ITIMs,SHP-1 [9],leads to binding of SHP-1
same,binding of SHP-2 to iR ITIMs,SHP-2,SHP-2 binding is dominated
IL-18: IL-1 family cytokine,pro-inflammatory activation of macrophages,macrophages [8],exhibited capacities of pro-inflammatory activation of macrophages
Phomoxanthone A [Phomoxanthone A (PXA)],SHP-1 activity in macrophages (effect in words),SHP-1 [4],"dose-dependently, moderately inhibited SHP-1 activity"
TGFβ: immunosuppressive cytokine,binding of SHP-1 to iR ITIMs,SHP-1 [9],leads to binding of SHP-1
same,binding of SHP-2 to iR ITIMs,SHP-2,SHP-2 binding is dominated
TNFα,pro-inflammatory activation of macrophages,macrophages [8],exhibited capacities of pro-inflammatory activation of macrophages
same,binding of SHP-1 to iR ITIMs,SHP-1 [9],SHP-1 binding occurs exclusively under proinflammatory conditions
lipopolysaccharide [LPS],binding of SHP-1 to iR ITIMs,SHP-1 [9],SHP-1 binding occurs exclusively under proinflammatory conditions
pervanadate,PTP activity diminished in macrophages,[3],> 70%
polycytidylic acid [PolyIC],binding of SHP-1 to iR ITIMs,SHP-1 [9],SHP-1 binding occurs exclusively under proinflammatory conditions
B1,antigen presentation,macrophages [8]; plus iShp1 (TPI-1),significantly increased antigen presentation
same,proinflammatory cytokine production,macrophages [8]; plus iShp1 (TPI-1),did not elicit proinflammatory cytokine production
same,binding of SHP-1 to iR ITIMs,SHP-1 [9],SHP-1 binding occurs exclusively under proinflammatory conditions
